Our source for the GI50 values is PMC6327044, “A chemical biology screen identifies a vulnerability of neuroendocrine cancer cells to SQLE inhibition” (Nature Communications, 2019).

Holding throughout (test): cells
Parameters in all cases: species or system panel of 482 human cancer cell lines; ATPLite luminescence growth inhibition after treatment, nine-point dilution curve, 482 cancer cell lines, 384-well
What all share (settings): 72 h, recommended growth medium
(In general: Cellular ATP, detected with luciferase, serves as a proxy for viable cell number.)

One test concerns HCC95_LUNG. The method, boiled down: (§1)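 Growth inhibition was measured across a panel of 482 cancer cell lines. Cells were plated at 500 cells per well in recommended growth media in black, tissue culture treated 384-well plates, centrifuged to equilibrate, and incubated 24 h before dosing. Compounds were tested as nine-point dilution curves for 72 h, with viability read by ATPLite luminescence relative to DMSO-treated controls.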

For the next test, the system named is NCIH1581_LUNG. The method, boiled down: as §1
Another test concerns NCIH661_LUNG. In outline: as §1
The next test relates to HEP3B217_LIVER. In outline:
as §1

For a further test, the system named is KURAMOCHI_OVARY. In outline: as §1
The next test concerns HCC2218_BREAST. The method, boiled down: as §1
The next test concerns TE6_OESOPHAGUS
The method, boiled down: as §1

A further test concerns HT115_LARGE_INTESTINE
In outline:
as §1

The subject of a further test is SW1116_LARGE_INTESTINE
In outline: as §1

Another test concerns A427_LUNG. The method, boiled down: as §1
The test system of test [1] is SNU1066_UPPER_AERODIGESTIVE_TRACT. In outline: as §1
A further test relates to SKNBE2_AUTONOMIC_GANGLIA. The method, boiled down: as §1

What is called GI50 is the concentration at which growth is held to half of that of the control. Higher therefore signals lower sensitivity of the cells. Consider `CCN(C/C=C/C#CC(C)(C)C)Cc1cccc(OCc2cc(-c3ccsc3)cs2)c1` [NB-598], for which the GI50 in the test with HCC95_LUNG was 0.134 µM; in the test with NCIH1581_LUNG it was 0.0124 µM; with NCIH661_LUNG, 28.9 µM; in the test with HEP3B217_LIVER it was 9.96 µM; in the test on KURAMOCHI_OVARY it was 52 µM; in the test on HCC2218_BREAST, 7.17 µM. Besides, the GI50 in the test with TE6_OESOPHAGUS turned out to be 9.28 µM; with HT115_LARGE_INTESTINE it was 2.72 µM; in the test with SW1116_LARGE_INTESTINE, 19.1 µM; in the test on A427_LUNG it was 0.00555 µM; in [1], 121 µM; in the test with SKNBE2_AUTONOMIC_GANGLIA, 0.0203 µM.
